Reference: ChEMBL document CHEMBL3885861, “Open TG-GATES”

Species: Rattus norvegicus
Experiment: Open TG-GATES - Regimen: Daily Repeat
Type: toxicity, organism-based, Sprague-Dawley
Parameters: regimen Daily Repeat, gender Male, age 6 weeks
Details: in vivo, po, route gavage; for APTT / Bas / Eos / Fbg / Hb / Ht / Lym / MCH / MCHC / MCV / Mono / Neu / PT / Plat / RBC / Ret / WBC: tissue Blood; for KIDNEY_L / KIDNEY_R / KIDNEY_TOTAL: tissue Kidney; for LIVER: tissue Liver; for A/G / ALP / ALT / AST / BUN / CRE / Ca / Cl / DBIL / GLC / IP / K / LDH / Na / PL / RALB / TBIL / TC / TG / TP / gamma-GTP: tissue Plasma
[1] = 0 mg/kg, 72 h, dose level Control, time 3 day
[2] = 0 mg/kg, […], dose level Control, time 7 day
[3] = 0 mg/kg, […], dose level Control, time 14 day
[4] = 0 mg/kg, […], dose level Control, time 28 day
[5] = 30 mg/kg, 72 h, dose level Low, time 3 day
[6] = 30 mg/kg, […], dose level Low, time 7 day
[7] = 30 mg/kg, […], dose level Low, time 14 day
[8] = 30 mg/kg, […], dose level Low, time 28 day

CCCNC(=O)NS(=O)(=O)c1ccc(Cl)cc1 [CHLORPROPAMIDE]
TERMINAL_BW [1]: 215.2 g
APTT [1]: 17.7 s
Bas [1]: 0.2%
Eos [1]: 1%
Fbg [1]: 289.2 mg/dL
Hb [1]: 13.2 g/dL
Ht [1]: 40.3%
Lym [1]: 78%
MCH [1]: 21.8 pg
MCHC [1]: 32.8%
MCV [1]: 66.6 fL
Mono [1]: 4%
Neu [1]: 16%
PT [1]: 15.4 s
Plat [1]: 120.9 x10_4/uL
RBC [1]: 605.6 x10_4/ul
Ret [1]: 7.5%
WBC [1]: 84 x10_2/uL
KIDNEY_L [1]: 0.9 g
KIDNEY_R [1]: 0.9 g
KIDNEY_TOTAL [1]: 1.9 g
LIVER [1]: 10.4 g
A/G [1]: 0.9
ALP [1]: 1591.4 IU/L
ALT [1]: 48.2 IU/L
AST [1]: 71.6 IU/L
BUN [1]: 16.8 mg/dL
CRE [1]: 0.2 mg/dL
Ca [1]: 10.8 mg/dL
Cl [1]: 105 meq/L
DBIL [1]: 0.01 mg/dL
GLC [1]: 184 mg/dL
IP [1]: 7.3 mg/dL
K [1]: 4 meq/L
LDH [1]: 95.2 IU/L
Na [1]: 142.2 meq/L
PL [1]: 154.6 mg/dL
RALB [1]: 2.7 g/dL
TBIL [1]: 0.034 mg/dL
TC [1]: 80.4 mg/dL
TG [1]: 107.2 mg/dL
TP [1]: 5.8 g/dL
gamma-GTP [1]: 1 IU/L
TERMINAL_BW [2]: 251.8 g
TERMINAL_BW [3]: 307.1 g
TERMINAL_BW [4]: 390.8 g
APTT [2]: 17.6 s
Bas [2]: 0.2%
Eos [2]: 1%
Fbg [2]: 294 mg/dL
Hb [2]: 13.7 g/dL
Ht [2]: 40.9%
Lym [2]: 76.2%
MCH [2]: 21.6 pg
MCHC [2]: 33.4%
MCV [2]: 64.7 fL
Mono [2]: 2.6%
Neu [2]: 18.8%
PT [2]: 15.5 s
Plat [2]: 124.5 x10_4/uL
RBC [2]: 632 x10_4/ul
Ret [2]: 6.4%
WBC [2]: 98.4 x10_2/uL
APTT [3]: 18.5 s
Bas [3]: 0.2%
Eos [3]: 1%
Fbg [3]: 274 mg/dL
Hb [3]: 14.5 g/dL
Ht [3]: 42.8%
Lym [3]: 78.4%
MCH [3]: 20.6 pg
MCHC [3]: 33.8%
MCV [3]: 60.8 fL
Mono [3]: 2.4%
Neu [3]: 17.4%
PT [3]: 15.2 s
Plat [3]: 122.4 x10_4/uL
RBC [3]: 703.6 x10_4/ul
Ret [3]: 4.5%
WBC [3]: 115.5 x10_2/uL
APTT [4]: 20.6 s
Bas [4]: 0.2%
Eos [4]: 1.2%
Fbg [4]: 259.6 mg/dL
Hb [4]: 14.9 g/dL
Ht [4]: 45.3%
Lym [4]: 78.8%
MCH [4]: 19 pg
MCHC [4]: 32.9%
MCV [4]: 57.5 fL
Mono [4]: 2%
Neu [4]: 17%
PT [4]: 16.1 s
Plat [4]: 94.8 x10_4/uL
RBC [4]: 787.4 x10_4/ul
Ret [4]: 2.2%
WBC [4]: 103.1 x10_2/uL
KIDNEY_L [2]: 1.1 g
KIDNEY_R [2]: 1.1 g
KIDNEY_TOTAL [2]: 2.2 g
KIDNEY_L [3]: 1.2 g
KIDNEY_R [3]: 1.2 g
KIDNEY_TOTAL [3]: 2.4 g
KIDNEY_L [4]: 1.4 g
KIDNEY_R [4]: 1.4 g
KIDNEY_TOTAL [4]: 2.8 g
LIVER [2]: 11.6 g
LIVER [3]: 13.6 g
LIVER [4]: 14.6 g
A/G [2]: 0.8
ALP [2]: 1869.6 IU/L
ALT [2]: 43.2 IU/L
AST [2]: 69.4 IU/L
BUN [2]: 15.4 mg/dL
CRE [2]: 0.2 mg/dL
Ca [2]: 10.9 mg/dL
Cl [2]: 106 meq/L
DBIL [2]: 0.014 mg/dL
GLC [2]: 185.6 mg/dL
IP [2]: 6.7 mg/dL
K [2]: 4.2 meq/L
LDH [2]: 97.4 IU/L
Na [2]: 143 meq/L
PL [2]: 154.2 mg/dL
RALB [2]: 2.7 g/dL
TBIL [2]: 0.036 mg/dL
TC [2]: 82 mg/dL
TG [2]: 105.2 mg/dL
TP [2]: 5.8 g/dL
gamma-GTP [2]: 1.2 IU/L
A/G [3]: 0.8
ALP [3]: 1479.6 IU/L
ALT [3]: 44.6 IU/L
AST [3]: 68.6 IU/L
BUN [3]: 18.4 mg/dL
CRE [3]: 0.2 mg/dL
Ca [3]: 10.7 mg/dL
Cl [3]: 104.2 meq/L
DBIL [3]: 0.012 mg/dL
GLC [3]: 194.6 mg/dL
IP [3]: 7.3 mg/dL
K [3]: 4.1 meq/L
LDH [3]: 120 IU/L
Na [3]: 143.4 meq/L
PL [3]: 164 mg/dL
RALB [3]: 2.8 g/dL
TBIL [3]: 0.032 mg/dL
TC [3]: 77.8 mg/dL
TG [3]: 158.4 mg/dL
TP [3]: 6.1 g/dL
gamma-GTP [3]: 1 IU/L
A/G [4]: 0.8
ALP [4]: 1207 IU/L
ALT [4]: 40.2 IU/L
AST [4]: 66.8 IU/L
BUN [4]: 16.2 mg/dL
CRE [4]: 0.2 mg/dL
Ca [4]: 10.6 mg/dL
Cl [4]: 105.6 meq/L
DBIL [4]: 0.01 mg/dL
GLC [4]: 188.8 mg/dL
IP [4]: 6.5 mg/dL
K [4]: 3.8 meq/L
LDH [4]: 88.4 IU/L
Na [4]: 144 meq/L
PL [4]: 137.6 mg/dL
RALB [4]: 2.7 g/dL
TBIL [4]: 0.03 mg/dL
TC [4]: 65.8 mg/dL
TG [4]: 122.6 mg/dL
TP [4]: 6.1 g/dL
gamma-GTP [4]: 1 IU/L
TERMINAL_BW [5]: 215.3 g
APTT [5]: 21.2 s
Bas [5]: 0%
Eos [5]: 1.2%
Fbg [5]: 265 mg/dL
Hb [5]: 13.2 g/dL
Ht [5]: 39.6%
Lym [5]: 80.6%
MCH [5]: 21.1 pg
MCHC [5]: 33.2%
MCV [5]: 63.3 fL
Mono [5]: 2.4%
Neu [5]: 15%
PT [5]: 15.8 s
Plat [5]: 116.1 x10_4/uL
RBC [5]: 626 x10_4/ul
Ret [5]: 7%
WBC [5]: 83.4 x10_2/uL
KIDNEY_L [5]: 0.9 g
KIDNEY_R [5]: 0.9 g
KIDNEY_TOTAL [5]: 1.8 g
LIVER [5]: 10.1 g
A/G [5]: 0.9
ALP [5]: 1696 IU/L
ALT [5]: 49.6 IU/L
AST [5]: 73.2 IU/L
BUN [5]: 17.8 mg/dL
CRE [5]: 0.2 mg/dL
Ca [5]: 10.6 mg/dL
Cl [5]: 106 meq/L
DBIL [5]: 0.01 mg/dL
GLC [5]: 174 mg/dL
IP [5]: 7.5 mg/dL
K [5]: 4.1 meq/L
LDH [5]: 80.8 IU/L
Na [5]: 143.2 meq/L
PL [5]: 151 mg/dL
RALB [5]: 2.6 g/dL
TBIL [5]: 0.024 mg/dL
TC [5]: 78.8 mg/dL
TG [5]: 108 mg/dL
TP [5]: 5.7 g/dL
gamma-GTP [5]: 1 IU/L
TERMINAL_BW [6]: 245.8 g
TERMINAL_BW [7]: 303 g
TERMINAL_BW [8]: 389 g
APTT [6]: 19.1 s
Bas [6]: 0%
Eos [6]: 1%
Fbg [6]: 284.8 mg/dL
Hb [6]: 13.7 g/dL
Ht [6]: 41.3%
Lym [6]: 79.6%
MCH [6]: 21.3 pg
MCHC [6]: 33.2%
MCV [6]: 64.2 fL
Mono [6]: 1.8%
Neu [6]: 16.2%
PT [6]: 15.5 s
Plat [6]: 127.7 x10_4/uL
RBC [6]: 643 x10_4/ul
Ret [6]: 5.9%
WBC [6]: 95.2 x10_2/uL
APTT [7]: 16.7 s
Bas [7]: 0%
Eos [7]: 0.8%
Fbg [7]: 263 mg/dL
Hb [7]: 14.3 g/dL
Ht [7]: 43.2%
Lym [7]: 79.6%
MCH [7]: 20.8 pg
MCHC [7]: 33.2%
MCV [7]: 62.7 fL
Mono [7]: 2.6%
Neu [7]: 15.6%
PT [7]: 16.1 s
Plat [7]: 107.2 x10_4/uL
RBC [7]: 688.6 x10_4/ul
Ret [7]: 4.6%
WBC [7]: 100.6 x10_2/uL
APTT [8]: 18.8 s
Bas [8]: 0%
Eos [8]: 1%
Fbg [8]: 296.4 mg/dL
Hb [8]: 14.9 g/dL
Ht [8]: 45.1%
Lym [8]: 78.8%
MCH [8]: 19.4 pg
MCHC [8]: 33%
MCV [8]: 58.9 fL
Mono [8]: 2.8%
Neu [8]: 16.2%
PT [8]: 16 s
Plat [8]: 106.6 x10_4/uL
RBC [8]: 766.6 x10_4/ul
Ret [8]: 2.5%
WBC [8]: 98 x10_2/uL
KIDNEY_L [6]: 1 g
KIDNEY_R [6]: 1 g
KIDNEY_TOTAL [6]: 2 g
KIDNEY_L [7]: 1.2 g
KIDNEY_R [7]: 1.2 g
KIDNEY_TOTAL [7]: 2.4 g
KIDNEY_L [8]: 1.4 g
KIDNEY_R [8]: 1.4 g
KIDNEY_TOTAL [8]: 2.8 g
LIVER [6]: 11.3 g
LIVER [7]: 13.3 g
LIVER [8]: 16.1 g
A/G [6]: 0.8
ALP [6]: 1568.6 IU/L
ALT [6]: 42 IU/L
AST [6]: 66.8 IU/L
BUN [6]: 16.2 mg/dL
CRE [6]: 0.2 mg/dL
Ca [6]: 10.9 mg/dL
Cl [6]: 105.6 meq/L
DBIL [6]: 0.018 mg/dL
GLC [6]: 182.8 mg/dL
IP [6]: 7.4 mg/dL
K [6]: 3.9 meq/L
LDH [6]: 93.8 IU/L
Na [6]: 143.4 meq/L
PL [6]: 157.6 mg/dL
RALB [6]: 2.7 g/dL
TBIL [6]: 0.032 mg/dL
TC [6]: 76.4 mg/dL
TG [6]: 136.6 mg/dL
TP [6]: 5.8 g/dL
gamma-GTP [6]: 1 IU/L
A/G [7]: 0.8
ALP [7]: 1602.6 IU/L
ALT [7]: 41.8 IU/L
AST [7]: 66.6 IU/L
BUN [7]: 18.6 mg/dL
CRE [7]: 0.2 mg/dL
Ca [7]: 10.6 mg/dL
Cl [7]: 103.6 meq/L
DBIL [7]: 0.012 mg/dL
GLC [7]: 204.8 mg/dL
IP [7]: 7.7 mg/dL
K [7]: 4 meq/L
LDH [7]: 123.6 IU/L
Na [7]: 142.6 meq/L
PL [7]: 155 mg/dL
RALB [7]: 2.6 g/dL
TBIL [7]: 0.028 mg/dL
TC [7]: 74.4 mg/dL
TG [7]: 143.8 mg/dL
TP [7]: 5.8 g/dL
gamma-GTP [7]: 0.8 IU/L
A/G [8]: 0.8
ALP [8]: 1184 IU/L
ALT [8]: 39 IU/L
AST [8]: 64.8 IU/L
BUN [8]: 18.2 mg/dL
CRE [8]: 0.2 mg/dL
Ca [8]: 10.8 mg/dL
Cl [8]: 104.8 meq/L
DBIL [8]: 0.01 mg/dL
GLC [8]: 198.4 mg/dL
IP [8]: 6.7 mg/dL
K [8]: 3.6 meq/L
LDH [8]: 99.8 IU/L
Na [8]: 144.8 meq/L
PL [8]: 163.8 mg/dL
RALB [8]: 2.8 g/dL
TBIL [8]: 0.018 mg/dL
TC [8]: 77.8 mg/dL
TG [8]: 165.6 mg/dL
TP [8]: 6.2 g/dL
gamma-GTP [8]: 1.6 IU/L
